Data as given in the CheMixHub viscosity set.

Assay: xn = mol fraction of the nth substance listed

NC=O + CCCCO
Settings	viscosity [mPa·s]
293.15 K, 101 kPa, x1 = 0.1093	3.225
298.15 K, 100 kPa, x1 = 0.09212	2.58
298.15 K, 100 kPa, x1 = 0.1905	2.67
298.15 K, 100 kPa, x1 = 0.2439	2.76
298.15 K, 100 kPa, x1 = 0.2798	2.82
298.15 K, 100 kPa, x1 = 0.3484	2.96
298.15 K, 100 kPa, x1 = 0.4402	3.17
298.15 K, 100 kPa, x1 = 0.5809	3.46
298.15 K, 100 kPa, x1 = 0.6667	3.58
298.15 K, 100 kPa, x1 = 0.7277	3.65
298.15 K, 100 kPa, x1 = 0.7869	3.66
298.15 K, 100 kPa, x1 = 0.8345	3.64
298.15 K, 100 kPa, x1 = 0.8771	3.6
298.15 K, 100 kPa, x1 = 0.9257	3.53
298.15 K, 100 kPa, x1 = 0.9728	3.43

CN1CCC[C@H]1c1cccnc1 + ClC(Cl)Cl
viscosity [mPa·s], 101.33 kPa
Settings	298.15 K	308.15 K	323.15 K
x1 = 0.1107	0.8162	0.7343	0.6076
x1 = 0.1213	0.8741	0.7473	0.6289
x1 = 0.2022	1.135	0.9654	0.8066
x1 = 0.219	1.197	0.9796	0.8071
x1 = 0.2456	1.275	1.082	0.8894
x1 = 0.2972	1.463	1.206	0.958
x1 = 0.3738	1.8	1.473	1.138
x1 = 0.4026	1.921	1.588	1.198
x1 = 0.4882	2.296	1.818	1.361
x1 = 0.5032	2.395	1.9	1.402
x1 = 0.6129	2.846	2.267	1.651
x1 = 0.623	2.964	2.301	1.663
x1 = 0.6823	3.103	2.409	1.756
x1 = 0.6974	3.196	2.471	1.768
x1 = 0.8059	3.563	2.756	1.912
x1 = 0.8931	3.704	2.959	2
x1 = 0.8962	3.741	2.974	2.002

OCCCl + COC(C)=O
viscosity [mPa·s], 101.33 kPa
Settings	x1 = 0.1021	x1 = 0.2013	x1 = 0.3049	x1 = 0.4029	x1 = 0.5056	x1 = 0.6047	x1 = 0.7046	x1 = 0.7987	x1 = 0.9014
298.15 K	0.438	0.501	0.587	0.691	0.844	1.039	1.324	1.688	2.234
303.15 K	0.414	0.472	0.555	0.645	0.787	0.954	1.197	1.518	1.978
308.15 K	0.392	0.447	0.519	0.606	0.726	0.881	1.094	1.369	1.762

CN1CCC[C@H]1c1cccnc1 + CC(O)CO
100 kPa
Settings	viscosity [mPa·s]
293.15 K, x1 = 0.1	59.35
293.15 K, x1 = 0.3	44.85
298.15 K, x1 = 0.6005	14.25
303.15 K, x1 = 0.2009	28.85
308.15 K, x1 = 0.6005	8.935
313.15 K, x1 = 0.7	5.605
313.15 K, x1 = 0.7983	4.425
318.15 K, x1 = 0.3	11.45

CN1CCC[C@H]1c1cccnc1 + Oc1ccccc1
viscosity [mPa·s], 101 kPa
Settings	308.15 K	323.15 K
x1 = 0.1004	16.28	7.224
x1 = 0.206	28.72	11.46
x1 = 0.2109	30.07	12.15
x1 = 0.2205	29.73	11.9
x1 = 0.253	29.83	12.06
x1 = 0.255	29.69	12.05
x1 = 0.2629	29.4	12
x1 = 0.2865	28.64	11.74
x1 = 0.3078	27.55	11.63
x1 = 0.4035	21.01	10.08
x1 = 0.4981	16.16	8.092
x1 = 0.6636	7.423	4.797
x1 = 0.7961	5.162	3.41
x1 = 0.861	4.501	3.032
